Data published in article PMC13499021, “Cellular Assays for Dynamic Quantification of Deubiquitinase Activity and Inhibition” (Journal of molecular biology, 2023).

How the values were obtained:
Assay type in all cases: cell-based, SARS-CoV-2
[1] = tested on: SARS2 PL^pro L162F
[2] = tested on: SARS2 PL^pro N267D
[3] = tested on: SARS2 PL^pro N267K
[4] = tested on: SARS2 PL^pro Q269R
[5] = tested on: SARS2 PL^pro P248L
[6] = tested on: SARS2 PL^pro Y264H
[7] = tested on: SARS2 PL^pro Y268C
[8] = tested on: SARS2 PL^pro Y268H

Substance: GRL0617
- increase in IC50 [1]: ~8 fold
- impact of mutation on GRL0617 potency [2]: little impact
- impact of mutation on GRL0617 potency [3]: little impact
- impact of mutation on GRL0617 potency [4]: little impact
- decrease in potency [5]: > 10 fold
- resistance phenotype in dose response curves [5]: near-complete resistance
- decrease in potency [6]: > 10 fold
- resistance phenotype in dose response curves [6]: near-complete resistance
- decrease in potency [7]: > 10 fold
- resistance phenotype in dose response curves [7]: near-complete resistance
- decrease in potency [8]: > 10 fold
